Series [1] relates to patients newly diagnosed with Ph+ CML-CP. More on the design: method as in PMID 28939746. Particulars: by 12 months, cited from earlier work.
The conditions of series [2]: cited from earlier work.
Details of series [3]: method as in ref 23 = [23]; 23. Lee Y. Kang M. Kim J. Han J. Kim N.Y. Shin J.S. Park M.S. Kim C.O. Jin B.H. Choi M.K. Clinical pharmacokinetic characteristics and the effect of food on radotinib in healthy volunteers Proceedings. The settings on record: healthy volunteers; cited from earlier work.
The nature of series [4]: Population pharmacokinetic model (nonlinear mixed-effects modeling) of radotinib plasma concentrations in healthy volunteers and patients with CML-CP. Type of series: in vivo, human. The settings on record: for half-life: human, plasma, oral, read-out: terminal half-life (t1/2), population estimate (converted). As to the method: Two clinical PK studies of radotinib were performed in healthy volunteers and patients with CML-CP. The two studies were approved by the institutional review board (IRB) of Severance Hospital and Peking University People’s Hospital (IRB numbers 4-2024-0489 and 2018PHA053, respectively) and were conducted in accordance with the Declaration of Helsinki and the International Council for Harmonization Good Clinical Practice (ICH-GCP) guidelines. All participants provided written informed consent prior to any study-related procedures. The studies were registered at ClinicalTrials.gov (identifiers: NCT06461078 and NCT03722420). The present population PK study was performed using pooled data from two clinical studies.
The first study (NCT06461078) included healthy male adult volunteers aged 19 to 55 years, weighing 55 kg or heavier, with a body mass index (BMI) between 18.5 kg/m^2 and 27.0 kg/m^2. Individuals with a history of clinically significant psychiatric or comorbid conditions such as severe hepatic impairment, severe renal impartment, long QT syndrome; a history of gastrointestinal disorders or surgeries that may have affected the absorption of radotinib; or suspected symptoms of acute illness at the time of screening were excluded. Also excluded were individuals with concomitant medications or foods that may have interfered with the study outcomes as well as those with excessive consumption of caffeine, alcohol or tobacco. Individuals were also ineligible if they had participated in other clinical trials within 180 days, donated whole blood within 60 days or blood components within 30 days or received a blood transfusion within 30 days prior to the administration of radotinib. Study participants received a single oral dose of 400 mg radotinib under fasting conditions. Serial blood samples were collected from forearm veins of participants pre-dose and at 0.5, 1, 2, 3, 4, 5, 6, 8, 10, 12, 18, 24, 32 and 48 h post-dose.
The second study (NCT03722420) included patients aged 18 years or older with a confirmed diagnosis of Ph+ CML-CP within last 6 months, typical BCR-ABL1 transcript type and normal organ function. Patients with a T315I mutation in the BCR-ABL1 gene; a history of radiotherapy, interferon or other targeted anti-leukemic therapies; or clinically significant comorbidities were excluded. Patients were also ineligible if they had participated in other investigational studies within the past 3 months or were taking therapeutic coumarin derivatives; a moderate or strong CYP3A4 inhibitor or inducer; or medications that may have prolonged the QT interval. Study participants were orally administered 300 mg radotinib twice daily under fasting conditions. Serial blood samples were obtained from forearm veins pre-dose and at 1, 2, 3, 4, 6, 8 and 12 h post-dose on Days 1 and 14.
All samples were centrifuged to separate plasma and stored at −70 °C until the measurement of plasma concentrations (Cp) of radotinib. The Cp of radotinib in HVs was measured using high-performance liquid chromatography coupled with tandem mass spectrometric detection (HPLC-MS/MS; Prominence HPLC/UFLC/UFLCXR, Shimadzu, Kyoto, Japan; QTRAP 6500+, SCIEX, Marlborough, MA, USA). An internal standard was radotinib-d6 dissolved in acetonitrile to produce working solutions. The linearity of the bioanalytical method was assessed using a calibration curve computed by a weighted (1/x^2) linear regression from seven standard concentrations (5, 10, 30, 100, 300, 1000 and 2000 ng/mL). The method was validated using concentrations of 5, 15, 160 and 1600 ng/mL for the lower limit of quantitation (LLOQ) and low- (LQC), medium- (MQC) and high-quality controls (HQC), respectively.
In patients with CML-CP, the Cp of radotinib was quantified using another HPLC–MS/MS system (LC-20ADXR pump, CTO-20AC column oven, CBM-20A Lite controller and DGU-20A5R degasser, Shimadzu, Kyoto, Japan; API 4000, SCIEX, MA, USA). Glipizide in acetonitrile was used as an internal standard. […]

Series [5] is described as follows: Preliminary pharmacokinetic assessment in patients with CML-CP. Particulars: human, plasma, oral, 300 mg twice daily, obtained by doubling the preliminary value of AUC0–12h, read-out: AUC0–24h, previously estimated. It is filed as in vivo.
A further series deals with patients with CML-CP. More on the design: method as in PMID 24705186. The settings on record: 400 mg twice daily; 77 patients; at 12 months; cited from earlier work.
Details of series [6]: method as in ref 24 = [24]; 24. Kim J. Kang M. Lee Y. Yoo S. Han J. Cho D.J. Lee G.Y. Kim N.Y. Jiang Q. Lee J. Pharmacokinetic characteristics of radotinib assessed in Asian patients with chronic myeloid leukemia Proceedings of. Particulars: patients with CML-CP, cited from earlier work.

Structures are written as SMILES. Like-named read-outs stand apart in the source and are kept apart here.

Here are results for 3 compounds from paper PMC12655659, “Population Pharmacokinetics of Radotinib in Healthy Volunteers and Patients with Chronic Myeloid Leukemia” (Pharmaceuticals, 2025).

As to `Cc1ccc(NC(=O)c2ccc(CN3CCN(C)CC3)cc2)cc1Nc1nccc(-c2cccnc2)n1` [imatinib], the “patients achieving major molecular response (MMR)” value in series [1] (once-daily 400 mg, 20 of 66 patients) was 30%.

For the compound `Cc1cn(-c2cc(NC(=O)c3ccc(C)c(Nc4nccc(-c5cccnc5)n4)c3)cc(C(F)(F)F)c2)cn1` [nilotinib], in series [2] (400 mg once daily), the “target Ctrough in terms of favorable molecular responses” value is listed as 500 ng/mL. Also, the t1/2 in series [2] was 16 h.

For `Cc1cn(-c2cc(NC(=O)c3ccc(C)c(Nc4nccc(-c5cnccn5)n4)c3)cc(C(F)(F)F)c2)cn1` [radotinib], in series [3], the “V/F, preliminary value based on NCA” value is 1315 L and the “t1/2, preliminary value” was 17.5 h. Also, in series [4] (bootstrap of 1000 replicates), the “CL/F, bootstrap estimate median (95% CI)” value is given as 23.2 (20.0–26.5) L/h; the “MTT, bootstrap estimate median (95% CI)” value is recorded as 1.86 (1.43–2.27) h; the “N, bootstrap estimate median (95% CI)” value was 6.34 (4.46–10.6); the “Q/F, bootstrap estimate median (95% CI)” value is 126 (88.9–185) L/h. Also, in series [4] (bootstrap of 1000 replicates), the “Vc/F age effect, bootstrap estimate median (95% CI)” value was −0.0127 (−0.0258–−0.003); the “Vc/F, bootstrap estimate median (95% CI)” value is 395 (281–526) L; the “Vp/F, bootstrap estimate median (95% CI)” value is 529 (398–733) L; the “ka, bootstrap estimate median (95% CI)” value is given as 1.56 (1.07–3.14) h^−1. Also, in series [4] (bootstrap of 1000 replicates), the “σproportional, bootstrap estimate” value is 20.0%; the “ωCL/F, bootstrap estimate median (95% CI)” value is 0.379 (0.301–0.459); the “ωIOV, bootstrap estimate median (95% CI)” value was 0.669 (0.494–0.829). In series [4] (final population PK model), the “CL/F slower in CML-CP patients compared with HVs” value is listed as 39.2%; the “MTT (mean transit time), population estimate” value is 1.88 h; the “N (number of transit compartments), population estimate” value is 6.58; the “estimated slope of negative linear effect of age on Vc/F” value is on record as −0.0129 per year. In series [4] (final population PK model), the “ka (first-order absorption rate constant), population estimate” value is 1.59 h⁻¹; the “negative linear relationship of age with Vc/F” value is −0.0129 L per year; the “total V/F (summation of Vc/F and Vp/F)” value is listed as 902 L; the “σproportional (proportional residual error), population estimate” value is 20.0%. In addition, the “ωCL/F (interindividual variability of apparent clearance), population estimate” value in series [4] (final population PK model) is listed as 0.389. Besides, in series [4] (final population PK model, HVs), the “CL/F, population estimate in healthy volunteers” value was 37.9 L/h. Also, the “Vc/F age effect (slope), population estimate” value in series [4] (final population PK model, linear, age − 31) was −0.0129. For the same compound, the “ωIOV (interoccasion variability), population estimate” value in series [4] (final population PK model, on Vc/F and Vp/F) is 0.698. Further, in series [4] (final population PK model, typical patient with CML-CP), the “CL/F (apparent clearance), population estimate” value was 23.0 L/h. Also, in series [4] (healthy volunteers), the “terminal half-life (t1/2), population estimate” value is 18.2 h. In addition, the half-life in series [4] (300 mg, patients with CML-CP) was 28.8 h. Moreover, in series [4] (male, 400 mg, healthy volunteers), the half-life is 17.5 h. Besides, the AUC(0-t) in series [5] was 24000 ng·h/mL. In addition, in the series with patients with CML-CP, the “patients achieving major cytogenetic response (MCyR)” value is recorded as 65% and the “patients attaining complete cytogenetic response (CCyR)” value is reported as 47%. For the same compound, in series [6] (300 mg twice daily), the “Cmax, preliminarily assessed value” is reported as 1595 (1143–2393) ng/mL and the “tmax, preliminarily assessed value” is 2.5 (2.0–3.8) h. The “t1/2, preliminary value” in series [6] was 25.4 h. Also, the “patients achieving major molecular response (MMR)” value in series [1] (300 mg twice daily, 37 of 69 patients) is reported as 54%.
